Results from patent publication US20110294843A1, “ADMINISTRATION SCHEME OF POLAR OPIOID METABOLITES FOR POST-OPERATIVE PAIN MANAGEMENT” (PAION UK Limited, priority 2008, published 2011).
Like-named read-outs stand apart in the source and are kept apart here.

Assays:
Type in all cases: in vivo, human
[1] = tested on: patients following hip-replacement surgery; test: M6G001A study: post-operative analgesia following hip-replacement surgery; conditions: all doses (10, 15, 20 mg/70 kg IV bolus followed by PCA)
Source text: . This was a double-blind, randomised study. […]

[2] = tested on: patients following total knee-replacement surgery; test: M6G015 study: pain following total knee-replacement surgery; conditions: 10, 20, 30 mg/70 kg slow IV, PCA morphine allowed
Protocol: Patients received a single dose of study treatment 150 minutes after the administration of the nerve block. […] The complete study has recently been reported by Dahan et al. (Eur J Pain, 2008; 12(4): 403-411).

[3] = Pharmacokinetics of M6G at single and multiple intravenous doses in healthy volunteers; conditions: for MRT inf: read-out: MRT0-∞; for Vd: read-out: Vss
Protocol: Healthy male and female subjects were divided into two groups (A and B) with 12 in each. Group A received three single intravenous infusions of M6G over 5 mins at levels of 15, 30 and 45 mg/70 kg in random order, having taken 50 mg of naloxone orally 24 hrs beforehand. There was a seven-day wash-out period between each dose. Blood samples were taken pre-dose and at the following time-points: 3, 5, 15, 30 mins and 1, 2, 3, 4, 6, 12 and 24 hrs after the start of the infusion. Group, B received five, 15 mg/70 kg, intravenous infusions of M6G, each over five minutes, at 6-hourly intervals, having taken a 50 mg oral dose of naloxone 24 hrs before the first infusion. Blood samples were taken before each of the 5 doses, and at 3, 5, 15, 30 mins and at 1, 2, 3 and 4 hrs after the initiation of the 1st and 5th infusions and at 6 hrs after the 5th dose. Vital signs (supine blood pressure, pulse, respiratory rate and oral temperature), respiration rate, pulse oximetry and adverse events were monitored during the study. Plasma levels of M6G were measured using HPLC/ms/ms.

[4] = both sexes, human, plasma, intravenous, 15 mg/70 kg, multiple dose, Dose 1-15 mg, Geometric Mean
[5] = both sexes, human, plasma, intravenous, 15 mg/70 kg, multiple dose, Dose 1-15 mg, Mean
[6] = both sexes, human, plasma, intravenous, 15 mg/70 kg, multiple dose, Dose 1-15 mg, Median
[7] = both sexes, human, plasma, iv, 15 mg/70 kg, single 5 min iv infusion 15 mg, Geometric Mean

Q: Which tolerability [1] does the source give for CN1CC[C@]23c4c5ccc(O)c4O[C@H]2[C@@H](OC2OC(C(=O)O)C(O)C(O)C2O)C=CC3[C@H]1C5 (stereo partly drawn) [M6G, (5α,6α)-7,8-Didehydro-4,5-epoxy-3-hydroxy-17-methylmorphinan-β-yl-β-D-glucopyranosiduronic acid] here?
A: well tolerated

Q: What about the “patients' opinion of pain relief compared with placebo” value [2] of the same compound?
A: no statistically significant differences

Q: What about the “average peak concentrations higher following Dose 5 than Dose 1” value ([3]; 15 mg 6-hourly iv infusions) of the same compound?
A: approximately 25%

Q: What about the “dose proportionality of exposure (Cmax, AUC0-t, AUC0-∞)” value ([3]; 15, 30 and 45 mg single iv infusions) of the same compound?
A: directly dose-proportional

Q: What about the concentration at 6 h ([3]; both sexes, human, plasma, 15 mg/70 kg, 6 hours after each dose, 15 mg 6-hourly iv, read-out: trough levels) of the same compound?
A: 63.9 ± 16.5 ng/mL

Q: What about the clearance [3, 4] of the same compound?
A: 119 mL/min

Q: And the AUC(0-t) ([3]; both sexes, human, plasma, intravenous, 15 mg/70 kg, multiple dose, Dose 1-15 mg, Geometric Mean, read-out: AUC0-6)?
A: 1910 ng·h/mL

Q: What about the AUC(0-inf) ([3]; both sexes, human, plasma, intravenous, 15 mg/70 kg, multiple dose, Dose 1-15 mg, Geometric Mean, read-out: AUC0-∞) of the same compound?
A: 2110 ng·h/mL

Q: What about the Cmax ([3]; both sexes, human, plasma, intravenous, 15 mg/70 kg, multiple dose, Dose 1-15 mg, Geometric Mean, read-out: Cmax) of the same compound?
A: 1840 ng/mL

Q: And the MRT inf [3, 4]?
A: 2.07 h

Q: What about the Vd [3, 4] of the same compound?
A: 14.7 L

Q: And the half-life ([3]; both sexes, human, plasma, intravenous, 15 mg/70 kg, multiple dose, Dose 1-15 mg, Geometric Mean, read-out: t1/2 (converted))?
A: 1.71 h

Q: And the clearance [3, 5]?
A: 119 mL/min

Q: What about the AUC(0-t) ([3]; both sexes, human, plasma, intravenous, 15 mg/70 kg, multiple dose, Dose 1-15 mg, Mean, read-out: AUC0-6) of the same compound?
A: 1920 ng·h/mL

Q: And the AUC(0-inf) ([3]; both sexes, human, plasma, intravenous, 15 mg/70 kg, multiple dose, Dose 1-15 mg, Mean, read-out: AUC0-∞)?
A: 2130 ng·h/mL

Q: And the Cmax ([3]; both sexes, human, plasma, intravenous, 15 mg/70 kg, multiple dose, Dose 1-15 mg, Mean, read-out: Cmax)?
A: 1980 ng/mL

Q: And the MRT inf [3, 5]?
A: 2.1 h

Q: And the Vd [3, 5]?
A: 14.8 L

Q: What about the half-life ([3]; both sexes, human, plasma, intravenous, 15 mg/70 kg, multiple dose, Dose 1-15 mg, Mean, read-out: t1/2 (converted)) of the same compound?
A: 1.73 h

Q: And the clearance [3, 6]?
A: 113 mL/min

Q: What about the AUC(0-t) ([3]; both sexes, human, plasma, intravenous, 15 mg/70 kg, multiple dose, Dose 1-15 mg, Median, read-out: AUC0-6) of the same compound?
A: 1950 ng·h/mL

Q: What about the AUC(0-inf) ([3]; both sexes, human, plasma, intravenous, 15 mg/70 kg, multiple dose, Dose 1-15 mg, Median, read-out: AUC0-∞) of the same compound?
A: 2210 ng·h/mL

Q: What about the Cmax ([3]; both sexes, human, plasma, intravenous, 15 mg/70 kg, multiple dose, Dose 1-15 mg, Median, read-out: Cmax) of the same compound?
A: 2090 ng/mL

Q: What about the MRT inf [3, 6] of the same compound?
A: 2.17 h

Q: What about the Vd [3, 6] of the same compound?
A: 14.2 L

Q: What about the half-life ([3]; both sexes, human, plasma, intravenous, 15 mg/70 kg, multiple dose, Dose 1-15 mg, Median, read-out: t1/2 (converted)) of the same compound?
A: 1.65 h

Q: What about the AUC ([3]; both sexes, human, plasma, intravenous, 15 mg/70 kg, multiple dose, Dose 5-15 mg, Geometric Mean, read-out: AUC24-30) of the same compound?
A: 2070 ng·h/mL

Q: And the AUC ([3]; both sexes, human, plasma, intravenous, 15 mg/70 kg, multiple dose, Dose 5-15 mg, Geometric Mean, read-out: AUC24-∞)?
A: 2170 ng·h/mL

Q: What about the Cmax ([3]; both sexes, human, plasma, intravenous, 15 mg/70 kg, multiple dose, Dose 5-15 mg, Geometric Mean, read-out: Cmax) of the same compound?
A: 2290 ng/mL

Q: What about the Vd ([3]; both sexes, human, plasma, intravenous, 15 mg/70 kg, multiple dose, Dose 5-15 mg, Geometric Mean) of the same compound?
A: 11.9 L

Q: And the half-life ([3]; both sexes, human, plasma, intravenous, 15 mg/70 kg, multiple dose, Dose 5-15 mg, Geometric Mean, read-out: t1/2 (converted))?
A: 1.49 h

Q: And the AUC ([3]; both sexes, human, plasma, intravenous, 15 mg/70 kg, multiple dose, Dose 5-15 mg, Mean, read-out: AUC24-30)?
A: 2080 ng·h/mL

Q: And the AUC ([3]; both sexes, human, plasma, intravenous, 15 mg/70 kg, multiple dose, Dose 5-15 mg, Mean, read-out: AUC24-∞)?
A: 2180 ng·h/mL

Q: And the Cmax ([3]; both sexes, human, plasma, intravenous, 15 mg/70 kg, multiple dose, Dose 5-15 mg, Mean, read-out: Cmax)?
A: 2370 ng/mL

Q: What about the Vd ([3]; both sexes, human, plasma, intravenous, 15 mg/70 kg, multiple dose, Dose 5-15 mg, Mean) of the same compound?
A: 12 L

Q: And the half-life ([3]; both sexes, human, plasma, intravenous, 15 mg/70 kg, multiple dose, Dose 5-15 mg, Mean, read-out: t1/2 (converted))?
A: 1.5 h

Q: What about the AUC ([3]; both sexes, human, plasma, intravenous, 15 mg/70 kg, multiple dose, Dose 5-15 mg, Median, read-out: AUC24-30) of the same compound?
A: 2090 ng·h/mL

Q: What about the AUC ([3]; both sexes, human, plasma, intravenous, 15 mg/70 kg, multiple dose, Dose 5-15 mg, Median, read-out: AUC24-∞) of the same compound?
A: 2210 ng·h/mL

Q: What about the Cmax ([3]; both sexes, human, plasma, intravenous, 15 mg/70 kg, multiple dose, Dose 5-15 mg, Median, read-out: Cmax) of the same compound?
A: 2370 ng/mL

Q: And the Vd ([3]; both sexes, human, plasma, intravenous, 15 mg/70 kg, multiple dose, Dose 5-15 mg, Median)?
A: 12.2 L

Q: What about the half-life ([3]; both sexes, human, plasma, intravenous, 15 mg/70 kg, multiple dose, Dose 5-15 mg, Median, read-out: t1/2 (converted)) of the same compound?
A: 1.56 h

Q: What about the AUC(0-t) ([3]; both sexes, human, plasma, intravenous, 15 mg/70 kg, single 5 min infusion 15 mg/70 kg, read-out: AUC0-t, Geometric LS means) of the same compound?
A: 1760 ng·h/mL

Q: And the AUC(0-inf) ([3]; both sexes, human, plasma, intravenous, 15 mg/70 kg, single 5 min infusion 15 mg/70 kg, read-out: AUC0-∞, Geometric LS means)?
A: 1880 ng·h/mL

Q: And the Cmax ([3]; both sexes, human, plasma, intravenous, 15 mg/70 kg, single 5 min infusion 15 mg/70 kg, read-out: Cmax, Geometric LS means)?
A: 1740 ng/mL

Q: And the AUC(0-t) ([3]; both sexes, human, plasma, intravenous, 30 mg/70 kg, single 5 min infusion 30 mg/70 kg, read-out: AUC0-t, Geometric LS means)?
A: 3880 ng·h/mL

Q: What about the AUC(0-inf) ([3]; both sexes, human, plasma, intravenous, 30 mg/70 kg, single 5 min infusion 30 mg/70 kg, read-out: AUC0-∞, Geometric LS means) of the same compound?
A: 3970 ng·h/mL

Q: What about the Cmax ([3]; both sexes, human, plasma, intravenous, 30 mg/70 kg, single 5 min infusion 30 mg/70 kg, read-out: Cmax, Geometric LS means) of the same compound?
A: 3700 ng/mL

Q: What about the AUC(0-t) ([3]; both sexes, human, plasma, intravenous, 45 mg/70 kg, single 5 min infusion 45 mg/70 kg, read-out: AUC0-t, Geometric LS means) of the same compound?
A: 5750 ng·h/mL

Q: What about the AUC(0-inf) ([3]; both sexes, human, plasma, intravenous, 45 mg/70 kg, single 5 min infusion 45 mg/70 kg, read-out: AUC0-∞, Geometric LS means) of the same compound?
A: 5850 ng·h/mL

Q: What about the Cmax ([3]; both sexes, human, plasma, intravenous, 45 mg/70 kg, single 5 min infusion 45 mg/70 kg, read-out: Cmax, Geometric LS means) of the same compound?
A: 5720 ng/mL

Q: And the clearance [3, 7]?
A: 131 mL/min

Q: What about the AUC(0-inf) ([3]; both sexes, human, plasma, iv, 15 mg/70 kg, single 5 min iv infusion 15 mg, Geometric Mean, read-out: AUC0-∞) of the same compound?
A: 1910 ng·h/mL

Q: And the Cmax ([3]; both sexes, human, plasma, iv, 15 mg/70 kg, single 5 min iv infusion 15 mg, Geometric Mean, read-out: Cmax)?
A: 1750 ng/mL

Q: And the MRT inf [3, 7]?
A: 1.64 h

Q: What about the Vd [3, 7] of the same compound?
A: 12.9 L

Q: What about the half-life ([3]; both sexes, human, plasma, iv, 15 mg/70 kg, single 5 min iv infusion 15 mg, Geometric Mean, read-out: t½ (converted)) of the same compound?
A: 1.46 h

Q: What about the clearance ([3]; both sexes, human, plasma, iv, 15 mg/70 kg, single 5 min iv infusion 15 mg, Mean) of the same compound?
A: 133 mL/min
